The source made the active and inactive calls.
Experiments:
[1] = target: T1, Insulin-degrading enzyme (Homo sapiens, UniProt P14735); test: Dose Response: Fluorescence polarization-based cell-based high throughput dose response assay for inhibitors of insulin-degrading enzyme (IDE). [Related pubchem assays: 434962 (Primary screen (IDE inhibitors in singlicate)), 449730 (Counterscreen (Cytotoxicity in triplicate)), 435028 (Confirmation (IDE inhibitors in triplicate)), 434984 (Summary …; type: functional
T1 sequence (P14735 whole entry): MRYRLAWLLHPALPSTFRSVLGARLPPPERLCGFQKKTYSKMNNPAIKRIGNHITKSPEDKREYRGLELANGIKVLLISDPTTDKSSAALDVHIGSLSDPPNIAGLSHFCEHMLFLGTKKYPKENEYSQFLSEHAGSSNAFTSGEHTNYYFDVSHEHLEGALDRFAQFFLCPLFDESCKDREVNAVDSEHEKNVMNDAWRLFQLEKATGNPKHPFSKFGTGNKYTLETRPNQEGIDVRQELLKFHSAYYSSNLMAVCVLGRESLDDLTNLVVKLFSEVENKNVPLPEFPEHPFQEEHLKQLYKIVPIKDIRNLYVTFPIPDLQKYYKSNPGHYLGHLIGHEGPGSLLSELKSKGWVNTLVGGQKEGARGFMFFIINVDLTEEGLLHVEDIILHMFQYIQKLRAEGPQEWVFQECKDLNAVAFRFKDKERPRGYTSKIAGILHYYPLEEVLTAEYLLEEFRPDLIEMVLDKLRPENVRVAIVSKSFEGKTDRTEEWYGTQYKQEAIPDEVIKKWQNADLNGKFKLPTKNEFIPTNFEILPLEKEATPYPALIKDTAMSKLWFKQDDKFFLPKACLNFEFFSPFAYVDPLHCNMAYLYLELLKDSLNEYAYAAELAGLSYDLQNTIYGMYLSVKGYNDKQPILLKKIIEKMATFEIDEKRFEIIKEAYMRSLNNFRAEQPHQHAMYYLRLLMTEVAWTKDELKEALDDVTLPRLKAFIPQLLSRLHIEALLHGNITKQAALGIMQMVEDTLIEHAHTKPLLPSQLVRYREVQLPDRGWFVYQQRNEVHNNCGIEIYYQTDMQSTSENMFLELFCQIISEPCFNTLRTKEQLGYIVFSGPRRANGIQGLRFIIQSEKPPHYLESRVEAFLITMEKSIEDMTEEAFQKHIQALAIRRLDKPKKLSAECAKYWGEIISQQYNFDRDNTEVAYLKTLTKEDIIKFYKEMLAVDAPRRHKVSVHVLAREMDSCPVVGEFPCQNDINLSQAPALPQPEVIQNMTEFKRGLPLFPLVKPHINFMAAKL

[2] = viability of HCT116 lacking mutant beta-catenin – cell-based, human colon tumor, dose response (AID 1045); type: functional;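 further: HCT116 colon tumor cells with beta catenin knocked out; cells exposed to compound for 60 hours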
[3] = viability of PTEN-deleted HCT116 cells – cell-based, HCT116 PTEN knockout, dose response (AID 1047); type: functional;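 further: HCT116 colon tumor cells with PTEN knocked out; cells exposed to compound for 60 hours before readout; potency for loss of cell viability measured by luminescence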
[4] = Counterscreen for IDE inhibitors: Luminescence-based cell-based high throughput dose response assay to identify compounds that are cytotoxic to HEK cells. [Related pubchem assays: 434962 (Primary screen (IDE inhibitors in singlicate)), 449730 (Counterscreen (Cytotoxicity in triplicate)), 435028 (Confirmation (IDE inhibitors in triplicate)) …; type: functional; settings: HEK293
[5] = target: Cytochrome P450 2D6 (Homo sapiens, UniProt P10635); test: qHTS Assay for Inhibitors and Substrates of Cytochrome P450 2D6. [Related pubchem assays: 410 ]; type: ADME; settings: read-out: Potency
[6] = target: T2, Neuropeptides B/W receptor type 1 (Homo sapiens, UniProt P48145); test: Fluorescence-based dose response cell-based high throughput screening assay to identify antagonists of the G-protein coupled receptor 7 (GPR7). [Related pubchem assays: 1952 (Screening assay (GPR7 antagonists).), 1880 (Summary AID.)]; type: functional
T2 sequence (P48145 whole entry): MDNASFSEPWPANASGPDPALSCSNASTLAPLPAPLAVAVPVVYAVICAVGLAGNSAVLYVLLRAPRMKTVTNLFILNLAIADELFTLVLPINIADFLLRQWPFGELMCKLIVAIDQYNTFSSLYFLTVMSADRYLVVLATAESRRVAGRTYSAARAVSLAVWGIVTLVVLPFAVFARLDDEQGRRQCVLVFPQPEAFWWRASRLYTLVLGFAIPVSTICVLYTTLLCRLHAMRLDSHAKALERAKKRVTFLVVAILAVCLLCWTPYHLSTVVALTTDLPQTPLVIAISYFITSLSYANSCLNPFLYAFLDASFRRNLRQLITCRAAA

[7] = target: Melanin-concentrating hormone receptor 1 (Homo sapiens, UniProt Q99705); test: Fluorescence-based counterscreen for antagonists of the G-protein coupled receptor 7 (GPR7): cell-based high throughput dose response assay to identify antagonists of the melanin-concentrating hormone receptor 1 (MCHR1).; type: functional
[8] = fluconazole-exposed Candida albicans growth modulators – fluorescence, retest, confirmation (AID 2467); type: functional, cell-based
[9] = target: T3, Protein skinhead-1 (Caenorhabditis elegans, UniProt P34707); type: functional
T3 sequence (P34707 whole entry): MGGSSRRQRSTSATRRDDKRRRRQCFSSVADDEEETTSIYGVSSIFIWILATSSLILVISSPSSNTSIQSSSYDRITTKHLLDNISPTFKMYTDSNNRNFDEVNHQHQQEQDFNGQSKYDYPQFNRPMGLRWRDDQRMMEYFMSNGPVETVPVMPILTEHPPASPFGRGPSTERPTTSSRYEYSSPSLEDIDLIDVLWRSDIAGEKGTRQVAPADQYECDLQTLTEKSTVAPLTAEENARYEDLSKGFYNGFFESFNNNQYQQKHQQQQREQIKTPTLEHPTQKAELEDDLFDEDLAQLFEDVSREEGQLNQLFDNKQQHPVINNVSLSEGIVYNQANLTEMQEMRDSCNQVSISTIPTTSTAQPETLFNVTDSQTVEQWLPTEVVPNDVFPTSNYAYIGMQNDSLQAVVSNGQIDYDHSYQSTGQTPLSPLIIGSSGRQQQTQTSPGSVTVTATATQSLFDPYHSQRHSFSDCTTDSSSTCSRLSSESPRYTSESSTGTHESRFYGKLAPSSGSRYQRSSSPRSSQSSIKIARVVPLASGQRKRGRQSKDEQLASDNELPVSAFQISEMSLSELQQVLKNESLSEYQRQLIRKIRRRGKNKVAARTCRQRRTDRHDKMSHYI

[10] = NIH-3T3 fibroblast cytotoxicity, dose response, cytotoxicity control, cell-based, fluorescence, Alamar Blue, secondary assay (AID 2327); type: functional;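 further: NIH-3T3 mouse fibroblasts cultured with fluconazole at 8 µg/mL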
[11] = target: T4, Dual specificity protein phosphatase 6 (Rattus norvegicus, UniProt Q64346)
T4 sequence (Q64346 whole entry): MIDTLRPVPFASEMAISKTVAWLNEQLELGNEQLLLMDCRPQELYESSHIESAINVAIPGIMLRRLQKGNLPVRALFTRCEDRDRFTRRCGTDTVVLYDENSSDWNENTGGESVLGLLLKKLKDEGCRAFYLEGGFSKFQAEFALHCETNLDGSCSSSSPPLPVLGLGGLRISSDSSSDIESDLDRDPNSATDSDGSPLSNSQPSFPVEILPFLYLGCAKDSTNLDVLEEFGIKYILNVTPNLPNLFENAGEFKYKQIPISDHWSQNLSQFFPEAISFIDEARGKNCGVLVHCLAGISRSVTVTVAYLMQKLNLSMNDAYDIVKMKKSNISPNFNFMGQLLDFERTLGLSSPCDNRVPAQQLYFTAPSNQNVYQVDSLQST

[12] = target: T4, Dual specificity protein phosphatase 6; type: functional
[13] = target: Glyceraldehyde-3-phosphate dehydrogenase (Homo sapiens, UniProt P04406)
[14] = target: T5, Tyrosine-protein phosphatase non-receptor type 7 (Homo sapiens, UniProt P35236); type: functional
T5 sequence (P35236 whole entry): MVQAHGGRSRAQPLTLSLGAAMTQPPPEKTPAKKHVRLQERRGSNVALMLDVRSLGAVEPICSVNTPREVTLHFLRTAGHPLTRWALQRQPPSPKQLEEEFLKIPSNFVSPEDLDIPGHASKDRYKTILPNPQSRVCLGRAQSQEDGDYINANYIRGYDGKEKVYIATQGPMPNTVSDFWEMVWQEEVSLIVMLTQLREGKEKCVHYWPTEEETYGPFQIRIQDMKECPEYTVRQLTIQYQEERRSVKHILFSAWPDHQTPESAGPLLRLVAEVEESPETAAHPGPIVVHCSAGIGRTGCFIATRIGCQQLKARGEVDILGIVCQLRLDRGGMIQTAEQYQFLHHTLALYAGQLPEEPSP

[15] = target: T6, Heat shock factor protein 1 (Mus musculus, UniProt P38532); test: enhancement of HSF1-driven luciferase signal – cell-based, NIH3T3, luminescence, dose retest, confirmation (AID 435004); type: functional;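 further: stress induced by proteasome inhibitor MG132 added 30 min after compound; luciferase reporter driven by HSF1 response element in NIH3T3 cells; actives raise luminescence as potentiators of the MG132 stress response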
T6 sequence (P38532 whole entry): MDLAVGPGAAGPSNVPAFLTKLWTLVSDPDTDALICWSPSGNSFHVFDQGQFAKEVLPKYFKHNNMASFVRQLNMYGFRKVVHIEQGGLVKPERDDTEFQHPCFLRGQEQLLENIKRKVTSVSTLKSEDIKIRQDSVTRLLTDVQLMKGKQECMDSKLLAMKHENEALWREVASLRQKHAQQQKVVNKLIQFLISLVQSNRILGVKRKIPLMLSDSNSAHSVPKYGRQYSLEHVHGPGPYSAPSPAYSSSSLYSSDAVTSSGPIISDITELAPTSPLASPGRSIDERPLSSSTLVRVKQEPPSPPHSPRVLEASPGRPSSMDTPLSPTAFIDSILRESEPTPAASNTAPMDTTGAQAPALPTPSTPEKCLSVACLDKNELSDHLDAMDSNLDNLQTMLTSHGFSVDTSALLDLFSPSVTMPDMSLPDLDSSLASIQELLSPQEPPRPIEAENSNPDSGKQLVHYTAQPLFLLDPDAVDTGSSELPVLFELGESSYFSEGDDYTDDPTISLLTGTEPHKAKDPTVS

[16] = target: T5, Tyrosine-protein phosphatase non-receptor type 7; test: redox-active compounds inhibiting HePTP phosphatase – biochemical, fluorescence, mechanism study (AID 2068); type: functional
[17] = target: Alkaline phosphatase, placental type (Homo sapiens, UniProt P05187); test: human placental alkaline phosphatase inhibition – biochemical, luminescence, confirmation (AID 1512); type: functional
[18] = target: T7, Alkaline phosphatase, tissue-nonspecific isozyme (Homo sapiens, UniProt P05186); test: potency against alkaline phosphatase TNAP – biochemical, luminescent, dose response, SAR follow-up (AID 1056)
T7 sequence (P05186 whole entry): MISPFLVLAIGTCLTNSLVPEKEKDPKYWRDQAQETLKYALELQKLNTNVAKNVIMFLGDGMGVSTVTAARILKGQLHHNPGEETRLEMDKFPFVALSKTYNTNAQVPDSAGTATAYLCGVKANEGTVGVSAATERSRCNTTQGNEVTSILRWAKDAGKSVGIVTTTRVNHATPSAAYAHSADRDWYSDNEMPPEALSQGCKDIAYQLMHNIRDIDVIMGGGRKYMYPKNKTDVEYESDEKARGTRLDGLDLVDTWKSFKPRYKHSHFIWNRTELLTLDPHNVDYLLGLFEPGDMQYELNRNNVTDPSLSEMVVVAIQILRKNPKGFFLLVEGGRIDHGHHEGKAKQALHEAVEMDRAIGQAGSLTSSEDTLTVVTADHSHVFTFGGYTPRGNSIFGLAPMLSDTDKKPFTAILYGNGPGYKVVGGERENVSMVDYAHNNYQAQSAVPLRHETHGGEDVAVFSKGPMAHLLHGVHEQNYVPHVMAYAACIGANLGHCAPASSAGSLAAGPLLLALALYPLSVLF

[19] = target: Voltage-gated N-type calcium channel alpha-1B subunit/Amyloid beta A4 precursor protein-binding family A member 1 (Homo sapiens, UniProt Q00975+Q02410); test: disruptors of Mint-PDZ/N-type channel peptide interaction – biochemical, HTRF, set 2, SAR follow-up (AID 434980); type: functional
[20] = Luminescent dose response cell-based high throughput screening assay for inhibitors of the Janus kinase 2 mutant JAK2V617F. [Related pubchem assays: 1446 (Primary screen.), 1521 (Confirmation assay.), 1486 (Counter screen.)]; type: functional
[21] = target: Polyadenylate-binding protein 1 (Homo sapiens, UniProt P11940); test: blockers of PABP interaction with poly(A) – biochemical, fluorescence polarization, […] (AID 2014)
[22] = target: Eukaryotic translation initiation factor 4H (Homo sapiens, UniProt Q15056); test: eIF4H binding inhibition – biochemical, uHTS, fluorescence polarization, translation initiation inhibitor project, primary screen (AID 2012)

Alkaline phosphatase, placental type, sequence (P05187 whole entry): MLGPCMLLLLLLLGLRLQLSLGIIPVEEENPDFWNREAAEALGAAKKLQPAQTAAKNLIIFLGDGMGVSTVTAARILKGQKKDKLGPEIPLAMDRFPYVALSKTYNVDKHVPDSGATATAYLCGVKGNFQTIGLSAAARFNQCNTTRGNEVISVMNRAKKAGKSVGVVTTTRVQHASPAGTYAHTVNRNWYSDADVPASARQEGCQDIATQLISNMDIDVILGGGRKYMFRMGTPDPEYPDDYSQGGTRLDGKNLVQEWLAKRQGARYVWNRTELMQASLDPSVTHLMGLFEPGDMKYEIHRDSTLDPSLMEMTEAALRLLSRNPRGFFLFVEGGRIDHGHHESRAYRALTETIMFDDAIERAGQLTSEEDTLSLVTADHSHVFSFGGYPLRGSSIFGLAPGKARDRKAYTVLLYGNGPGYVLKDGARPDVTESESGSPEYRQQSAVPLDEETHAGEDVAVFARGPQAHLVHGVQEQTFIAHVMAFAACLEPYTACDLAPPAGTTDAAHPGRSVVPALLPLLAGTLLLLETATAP
Melanin-concentrating hormone receptor 1, sequence (Q99705 whole entry): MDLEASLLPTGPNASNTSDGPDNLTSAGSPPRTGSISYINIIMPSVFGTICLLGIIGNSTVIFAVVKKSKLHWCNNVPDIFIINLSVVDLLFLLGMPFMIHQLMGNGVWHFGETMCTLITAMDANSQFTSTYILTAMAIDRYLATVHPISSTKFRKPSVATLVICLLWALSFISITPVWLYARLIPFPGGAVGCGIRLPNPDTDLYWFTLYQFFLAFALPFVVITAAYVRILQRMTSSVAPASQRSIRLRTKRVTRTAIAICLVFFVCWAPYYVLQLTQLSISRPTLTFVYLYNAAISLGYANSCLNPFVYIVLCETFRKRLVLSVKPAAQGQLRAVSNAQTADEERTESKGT
Cytochrome P450 2D6, sequence (P10635 whole entry): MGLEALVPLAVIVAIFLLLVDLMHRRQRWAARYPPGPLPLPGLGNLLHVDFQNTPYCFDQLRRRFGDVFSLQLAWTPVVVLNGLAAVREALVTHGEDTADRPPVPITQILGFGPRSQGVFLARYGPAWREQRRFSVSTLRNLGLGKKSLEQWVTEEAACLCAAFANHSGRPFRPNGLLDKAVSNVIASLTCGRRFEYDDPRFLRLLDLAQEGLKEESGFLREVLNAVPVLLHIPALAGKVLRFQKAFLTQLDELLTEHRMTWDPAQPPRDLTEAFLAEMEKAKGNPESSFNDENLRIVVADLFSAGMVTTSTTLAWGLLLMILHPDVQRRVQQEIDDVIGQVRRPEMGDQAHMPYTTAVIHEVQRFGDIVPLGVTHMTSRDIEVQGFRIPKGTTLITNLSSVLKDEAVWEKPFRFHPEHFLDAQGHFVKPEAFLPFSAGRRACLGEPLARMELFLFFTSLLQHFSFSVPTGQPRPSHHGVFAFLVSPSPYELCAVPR
Voltage-gated N-type calcium channel alpha-1B subunit/Amyloid beta A4 precursor protein-binding family A member 1, sequence (Q00975 whole entry): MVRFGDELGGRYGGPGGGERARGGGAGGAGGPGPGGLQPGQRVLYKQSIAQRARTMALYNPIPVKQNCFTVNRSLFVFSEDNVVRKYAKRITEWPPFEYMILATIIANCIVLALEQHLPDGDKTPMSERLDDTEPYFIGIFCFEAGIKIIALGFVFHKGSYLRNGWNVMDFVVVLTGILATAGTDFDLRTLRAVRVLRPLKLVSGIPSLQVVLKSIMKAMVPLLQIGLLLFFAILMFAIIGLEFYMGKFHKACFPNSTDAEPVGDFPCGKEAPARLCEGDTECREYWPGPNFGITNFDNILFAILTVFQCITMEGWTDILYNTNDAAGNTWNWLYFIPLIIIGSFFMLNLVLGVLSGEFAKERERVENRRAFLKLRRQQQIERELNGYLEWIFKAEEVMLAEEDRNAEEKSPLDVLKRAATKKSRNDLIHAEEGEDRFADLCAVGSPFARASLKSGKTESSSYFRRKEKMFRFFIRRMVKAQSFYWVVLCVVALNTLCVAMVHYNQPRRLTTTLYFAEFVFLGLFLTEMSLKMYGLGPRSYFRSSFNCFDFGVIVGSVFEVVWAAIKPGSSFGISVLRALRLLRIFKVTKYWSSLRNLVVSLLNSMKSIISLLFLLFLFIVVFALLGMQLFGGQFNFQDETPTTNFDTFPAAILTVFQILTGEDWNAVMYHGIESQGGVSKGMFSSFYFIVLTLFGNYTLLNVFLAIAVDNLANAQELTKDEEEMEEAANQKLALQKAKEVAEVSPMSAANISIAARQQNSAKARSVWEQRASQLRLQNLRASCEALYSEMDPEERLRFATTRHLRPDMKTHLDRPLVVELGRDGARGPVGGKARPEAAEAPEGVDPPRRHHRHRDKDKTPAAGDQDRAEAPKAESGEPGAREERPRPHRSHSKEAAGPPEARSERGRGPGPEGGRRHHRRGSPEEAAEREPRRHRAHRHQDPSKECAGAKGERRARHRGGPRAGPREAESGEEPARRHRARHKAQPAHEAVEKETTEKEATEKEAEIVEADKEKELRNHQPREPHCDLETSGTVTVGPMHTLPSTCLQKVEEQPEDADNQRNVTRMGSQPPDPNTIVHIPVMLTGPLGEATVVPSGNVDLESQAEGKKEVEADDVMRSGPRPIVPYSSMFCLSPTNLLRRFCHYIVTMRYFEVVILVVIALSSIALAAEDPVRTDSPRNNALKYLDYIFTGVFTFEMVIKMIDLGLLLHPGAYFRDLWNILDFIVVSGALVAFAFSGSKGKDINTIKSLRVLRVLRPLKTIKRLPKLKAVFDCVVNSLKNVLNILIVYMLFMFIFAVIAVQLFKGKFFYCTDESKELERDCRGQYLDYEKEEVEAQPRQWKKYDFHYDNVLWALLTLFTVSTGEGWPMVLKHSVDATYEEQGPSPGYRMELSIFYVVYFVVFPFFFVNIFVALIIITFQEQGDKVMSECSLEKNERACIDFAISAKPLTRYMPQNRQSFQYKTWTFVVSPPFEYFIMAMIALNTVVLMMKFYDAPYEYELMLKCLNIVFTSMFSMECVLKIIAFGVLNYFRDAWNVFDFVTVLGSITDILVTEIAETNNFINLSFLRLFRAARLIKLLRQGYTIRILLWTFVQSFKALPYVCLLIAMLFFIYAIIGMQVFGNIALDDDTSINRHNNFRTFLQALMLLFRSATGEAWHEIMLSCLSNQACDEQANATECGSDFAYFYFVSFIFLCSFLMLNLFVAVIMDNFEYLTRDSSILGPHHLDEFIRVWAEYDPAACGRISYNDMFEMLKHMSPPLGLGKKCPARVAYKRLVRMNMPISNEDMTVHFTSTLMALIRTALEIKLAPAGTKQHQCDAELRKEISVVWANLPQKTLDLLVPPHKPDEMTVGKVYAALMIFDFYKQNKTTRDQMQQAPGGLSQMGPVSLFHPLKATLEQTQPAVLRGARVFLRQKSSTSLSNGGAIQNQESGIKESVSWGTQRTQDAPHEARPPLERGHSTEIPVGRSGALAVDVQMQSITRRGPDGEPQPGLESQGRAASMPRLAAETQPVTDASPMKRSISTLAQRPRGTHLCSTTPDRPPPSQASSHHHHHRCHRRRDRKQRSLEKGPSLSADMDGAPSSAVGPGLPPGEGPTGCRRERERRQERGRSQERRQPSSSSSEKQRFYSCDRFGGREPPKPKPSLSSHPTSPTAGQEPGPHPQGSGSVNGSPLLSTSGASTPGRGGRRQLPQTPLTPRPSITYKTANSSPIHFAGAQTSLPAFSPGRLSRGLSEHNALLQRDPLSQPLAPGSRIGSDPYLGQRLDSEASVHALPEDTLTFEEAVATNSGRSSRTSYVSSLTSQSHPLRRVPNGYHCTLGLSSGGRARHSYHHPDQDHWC
Voltage-gated N-type calcium channel alpha-1B subunit/Amyloid beta A4 precursor protein-binding family A member 1, sequence (Q02410 whole entry): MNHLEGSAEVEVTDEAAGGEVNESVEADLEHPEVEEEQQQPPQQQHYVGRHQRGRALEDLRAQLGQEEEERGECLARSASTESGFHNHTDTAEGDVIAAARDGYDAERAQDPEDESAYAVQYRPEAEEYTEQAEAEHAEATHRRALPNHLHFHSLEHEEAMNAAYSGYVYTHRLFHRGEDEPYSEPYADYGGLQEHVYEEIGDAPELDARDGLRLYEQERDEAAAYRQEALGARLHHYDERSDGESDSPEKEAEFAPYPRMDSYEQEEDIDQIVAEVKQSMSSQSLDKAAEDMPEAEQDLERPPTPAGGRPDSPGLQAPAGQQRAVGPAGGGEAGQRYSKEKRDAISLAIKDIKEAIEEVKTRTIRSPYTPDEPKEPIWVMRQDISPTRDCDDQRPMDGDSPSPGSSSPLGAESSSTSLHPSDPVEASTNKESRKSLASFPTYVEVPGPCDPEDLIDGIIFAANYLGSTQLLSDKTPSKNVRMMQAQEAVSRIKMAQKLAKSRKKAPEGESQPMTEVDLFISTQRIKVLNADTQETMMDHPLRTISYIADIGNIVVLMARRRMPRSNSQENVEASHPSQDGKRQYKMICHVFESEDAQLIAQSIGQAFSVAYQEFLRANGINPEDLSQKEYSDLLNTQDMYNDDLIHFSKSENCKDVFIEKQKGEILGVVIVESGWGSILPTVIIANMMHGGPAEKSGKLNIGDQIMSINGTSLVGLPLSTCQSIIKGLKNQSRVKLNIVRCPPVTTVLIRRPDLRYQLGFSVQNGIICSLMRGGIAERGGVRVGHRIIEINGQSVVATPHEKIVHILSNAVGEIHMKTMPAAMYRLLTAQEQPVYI
Glyceraldehyde-3-phosphate dehydrogenase, sequence (P04406 whole entry): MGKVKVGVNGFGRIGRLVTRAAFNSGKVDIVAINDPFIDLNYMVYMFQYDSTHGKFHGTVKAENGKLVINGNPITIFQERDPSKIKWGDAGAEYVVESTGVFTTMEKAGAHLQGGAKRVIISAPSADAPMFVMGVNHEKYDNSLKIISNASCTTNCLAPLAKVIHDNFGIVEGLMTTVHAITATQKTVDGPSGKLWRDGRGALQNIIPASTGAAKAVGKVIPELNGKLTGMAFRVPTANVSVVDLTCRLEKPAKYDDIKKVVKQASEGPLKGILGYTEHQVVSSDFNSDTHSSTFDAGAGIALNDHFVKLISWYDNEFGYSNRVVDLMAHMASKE

O=C1NC(=S)N(C(=O)c2ccc(F)cc2)/C1=C/c1ccccc1
IC50 [1]: 22.2 µM (not active) | EC50 [2]: 54.1 µM (active) | EC50 [3]: 40.8 µM (active) | IC50 [4]: 22.4 µM (not active)

O[C@@H]1CC[C@H]2Cc3ccccc3N=C21
AC50 [5]: 20 µM (inconclusive)

N=c1c(C(=O)NC2CCCCC2)cc2c(=O)n3ccccc3nc2n1CC1CCCO1 (configuration not stated)
IC50 [6]: > 43.8 µM (not active) | IC50 [7]: > 43.8 µM (not active)

S=C(Nc1ccccc1)Nc1nc2ccccc2n1CCOc1ccccc1
EC50 [8]: 2.08 µM (active) | IC50 [1]: > 55.9 µM (not active) | EC50 [2]: 15.9 µM (active) | IC50 [9]: > 100 µM (inactive) | EC50 [3]: 17.4 µM (active) | IC50 [4]: 15.9 µM (not active) | EC50 [10]: 8.47 µM (inconclusive)

C[C@@H](C(N)=O)n1c(=O)n(Cc2ccccc2)c(=O)n(-c2ccccc2)c1=O
IC50 [11]: > 100 µM (inactive) | IC50 [12]: > 100 µM (inactive) | IC50 [13]: > 100 µM (not active) | IC50 [14]: > 100 µM (not active)

Cc1ccccc1CC1(CO)CCCN(C(=O)c2ccccc2Cl)C1 (configuration not stated)
IC50 [6]: > 43.8 µM (not active) | EC50 [15]: > 260 µM (inactive) | IC50 [7]: 33.3 µM (not active)

Cc1nc(/N=N\c2cc(S(=O)(=O)O)c3cc([N+](=O)[O-])cc(S(=O)(=O)O)c3c2)c(COP(=O)(O)O)c(C=O)c1O
AC50 [5]: 20 µM (inconclusive)

COc1cc(C(=S)NCc2ccc(F)c(C(F)(F)F)c2)ccc1O
IC50 [16]: 1.65 µM (active) | IC50 [12]: > 100 µM (inactive)

CCn1c(SCC(=O)c2ccc(O)c(O)c2)nnc1-c1ccc(OC)cc1
IC50 [17]: 8.31 µM (inactive) | IC50 [18]: > 100 µM (inactive)

O=C(Nc1ncc(-c2ccccc2)s1)c1cc(-c2ccco2)nc2ccccc12
IC50 [19]: 18 µM (active)

COc1ccc(-n2nnnc2SCC(=O)c2ccc(O)c(O)c2)cc1
IC50 [17]: 1.42 µM (active) | IC50 [18]: 5.93 µM (active) | IC50 [20]: 1.46 µM (active)

CN1/C(=C/c2cccc[n+]2CCO)Sc2ccccc21
IC50 [21]: 1.87 µM (active) | IC50 [22]: > 100 µM (inactive)

Reference: ChEMBL document CHEMBL1201862, “PubChem BioAssay data set” (2004)
